In patent publication US8604059B2, “Thioxanthene derivatives for the treatment of infectious diseases” (BKG Pharma APS, priority 2009, dated 2013):
“And” between values parts separate entries of the source, which are not always exact repeats. Identical values can stand only once.

Columns and labels:
[1] = test system: Enterococcus faecalis ENT 28 (VRE); assay: Mouse peritonitis model, neutropenic NMRI mice, enhancing effect with linezolid; format: in vivo
Method: A multiresistant clinical isolate of Enterococcus faecalis ENT 28 (VRE) from human urine was used.
Female NMRI mice (age, approximately 6 to 8 weeks; weight, 30±2 g) were used for the mouse […] peritonitis model (as described below).
In order to detect any synergistic effect, infected mice were treated with sub-therapeutic doses of each test compound alone or a mixture of the two compounds.
Bacterial suspensions were prepared from fresh overnight cultures (made from frozen stock cultures) on 5% blood agar plates as described above. The inoculum for the mouse peritonitis model was prepared immediately before use and was adjusted at 540 nm of giving a density of approximately 10^7 CFU/ml. The size of the inoculum was determined by viability counting on 5% blood agar.
Neutropenia was introduced by pretreating the mice with cyclophosphamide (6 mg daily for three days). […] Antibiotic therapy was initiated just after inoculation. Linezolid and compound 3 was administered subcutaneously in the neck region in a volume of 0.5 ml per dose. 3 mice were in each treatment group. Inoculated untreated control mice were included in all trials. (Method reference: Erlandsdottir et al; Antimicrob Agents Chemother. 2001 April; 45(4):1078-85)
The effects of the various treatment regimens were determined during 5 h of treatment by evaluation of bacterial counts in the peritoneal fluid. After the mice were killed, peritoneal washes were performed by injecting 2 ml of sterile saline intraperitoneally, followed by massage of the abdomen and then opening of the peritoneum to collect the fluid. Peritoneal fluids were immediately diluted 10-fold in saline, from which 20 μl was plated onto 5% blood agar plates in spots, with subsequent counting of colonies after incubation overnight at 35° C. The lowest detection levels for bacterial counts in blood and peritoneal fluid were 50 and 250 CFU/ml, respectively.

strain IIIB of HIV-1 = assay: Inhibition of HIV-1 replication in MT4 cells, MTT assay; format: cell-based
Method: The enhancing effect of compound 3 on anti-viral agents was studied by checkerboard combination studies exposing HIV infected cells to 0-3 μM anti-viral agent in the absence or presence of compound 3 in concentrations from 0 to 6 μM. Each experiment was repeated in tripleduplicate. MIC values represent the mean values of two separate experiments.
The HIV-1 strain HTLV-IIIB were propagated in H9 cells at 37° C., 5% CO2 using RPMI 1640 with 10% heat-inactivated foetal calf serum (FCS) and antibiotics (growth medium). Culture supernatant was filtered ([…]), aliquotted, and stored at −80° C. until use. The HIV-1 strain was obtained from NIH AIDS Research and Reference Program.
Compounds were examined for possible antiviral activity against strain IIIB of HIV-1 using MT4 cells as target cells. MT4 cells were incubated with virus (0.005 MOI) and growth medium containing the test dilutions of compound(s) for six days in parallel with virus-infected and uninfected control cultures without compound added. Expression of HIV in the cultures was indirectly quantified using the MTT assay as previously described. Compounds mediating less than 30% reduction of HIV expression were considered without biological activity. Compounds were tested in parallel for cytotoxic effect in uninfected MT4 cultures containing the test dilutions of compound as described above. Cultures for test of both antiviral activity and cytotoxic effect were set up in tripleduplicates, […] per culture in micro titre plates. A 30% inhibition of cell growth relative to control cultures was considered significant. The 50% inhibitory concentration was determined by interpolation from the plots of percent inhibition versus concentration of compound.
EC50 is defined as the effective concentration that inhibits 50% of viral production, 50% of viral infectivity, or 50% of the virus-induced cytopathic effect.

[2] = treatment 0 and 2 hours, sampling 5 hours, sub-therapeutic doses as in Table 9, individual mice

Clc1ccc2c(c1)/C(=C/CCC1CCNCC1)c1ccccc1S2 [Compound 3]
Effect on the infection / bacteria in mouse peritoneum ([1]; sub-therapeutic dose alone): did not affect the bacteria
score at sampling ([1]; treatment 0 and 2 hours, sampling 5 hours, Linezolid 1 mg/ml 0.5 ml, Compound 3 0.1 mg/ml 0.5, combination Linezolid 2 mg/ml (0.25 ml) and compound 3 0.2 mg/ml (0.25 ml), individual mice): 1 and 2 (2×)
Cfu/ml peritoneum [1, 2]: 2.35E+09 Cfu/ml and 2.63E+09 Cfu/ml and 3.15E+09 Cfu/ml
log (cfu/ml) peritoneum [1, 2]: 9.37 log (cfu/ml) and 9.42 log (cfu/ml) and 9.50 log (cfu/ml)
EC50 (strain IIIB of HIV-1; Human immunodeficiency virus 1, IIIB, 144 h, single agent, MT4 cells, six days, read-out: EC50): > 4 µM
Antiviral effect alone (strain IIIB of HIV-1; at the concentrations used): no antiviral or cytotoxic effect
Enhancement of the antiviral effect of AZT (strain IIIB of HIV-1; combination of compound 3 and AZT): 5 time
